Data taken from US6605115B1, “Method and composition for inhibiting cardiovascular cell proliferation” (Board of Trustees of the Leland Stanford Junior University, priority 1999, dated 2003).

Experiments:
cytokine-stimulated VSMC [1] = assay: Effect of arginine oligomers on NO production in cytokine-stimulated VSMC (NO2, Griess); format: cell-based, rat
Method: (§1) Rat VSMCs were prepared from the media layer of thoracic aorta of Sprague-Dawley rats by the explant method. The cells were cultured in Dulbecco's modified Eagle's medium (DMEM, Gibco BRL, Gaithersburg, Md.) containing 10% fetal calf serum, 100 U/ml penicillin and 100 μg/ml streptomycin at 37° C. under a humidified atmosphere containing 5% CO2. After subconfluent growth, cells were cultured with MEM Select Amine Kit (Gibco BRL, Gaithersburg, Md.) to be treated by specific concentrations of extracellular free L-arginine. Experiments were performed using cultured cells at passage levels of 5-10.
(§2) Extracellular NO production was measured as its stable oxidative metabolite, nitrite (NO2). At the end of each incubation, samples of the medium (80 μl) were collected, and NO2 measurement was performed using the Griess reaction facilitated by a commercial calorimetric assay (Cayman Chemical, Ann Arbor, Mich.). Values of NO2 production were corrected with relative cell count assessed by a cell proliferation kit II (XTT) (Boeheringer Mannheim, Germany).
Subconfluent cells were pre-incubated with medium containing 100 μM arginine for 24 hours. The cells were then transiently pretreated with each arginine polymer for 30 minutes. After translocation, the cells were incubated with a mixture of IFN-γ (100 U/ml) and LPS (100 μg/ml) in medium containing 100 μM L-arginine for another 24 hours. In some experiments, L-NMMA (1 mM), a nitric oxide synthase inhibitor, was added to the medium.

cytokine-stimulated VSMC [2] = assay: as above; format: cell-based, rat; conditions: exposure 5 minutes; observed for 24 hours; free L-arginine at 1 mM
Rat aortic VSMC = assay: VSMC proliferation assay (XTT); format: cell-based; conditions: 10.0 μM, 30 minutes, then growth medium 0.5% FBS for 48 hours; vs vehicle
Method: Rat aortic VSMC were grown to 50% confluence in 96-well cell culture plates. VSMC were then washed and incubated with serum free DMEM for 48 hours to obtain quiescent nondividing cells. Thereafter, VSMC were treated with vehicle, L-R7 (10.0 μM), or D-R7 (10.0 μM) for 30 minutes. After the treatment, cells were washed, and further incubated with serum containing DMEM (0.5%, FBS). Cells were harvested after 48 hours of incubation. Cell count was performed with commercial cell proliferation assay kit using spectrophotometer (XTT, Boehringer Mannheim). As a negative control, cells treated with vehicle and incubated with DSF were used. As an index of cell proliferation, the OD ratio of each treatment group to negative control group was calculated as an index of cell proliferation.

[3] = tested on: human umbilical vein endothelial cells (ECV304); assay: In vitro translocation of biotin-labeled peptides into endothelial cells; format: cell-based; conditions: VSMC and endothelial cells in culture
Method: Spontaneously transformed human umbilical vein endothelial cells (ECV304, ATCC) were cultured in medium M199 (Irvine Scientific) containing 10% fetal bovine serum (FBS), 100 IU/ml penicillin and 100 μg/ml of streptomycin (Gibco BRL). Confluent cells were washed and placed in serum-free medium. After 2 hours, the cells were incubated in presence of biotin labeled peptides, as bL-R7, or bD-R7, or bL-K7 (0.1, 1.0, and 10.0 μM). After 30 minutes of incubation, cells were washed 3 times with phosphate-buffered saline (PBS), fixed in ethanol/acetone; washed in PBS; incubated for 30 minutes with peroxidase suppressor (ImmunoPure, Pierce) to block endogenous peroxidase activity; and then incubated with 5 μg/ml of horse-radish peroxidase (HRP) conjugated strepavidin (Pierce) for 30 minutes. Substrate of HRP, diaminobenzidine (DAB, Sigma), was added to the cells. The reaction was terminated by washing in distilled water after a 60-second incubation. This experiment was repeated 3 times.

vein grafts = assay: Vein graft model: vessel morphometry 28 days after surgery; format: in vivo, New Zealand white rabbits
Method: Male New Zealand white rabbits (3.0-3.5 kg) fed standard diets were anesthetized with a mixture of ketamine (40 mg/kg) and xylazine (5 mg/kg) intramuscularly. The left external jugular vein was exposed through a longitudinal neck incision. The jugular vein was excised, gently flushed and immersed in PBS (control) or PBS containing either L-R7 (10.0 μM) or D-r7 (10.0 μM) for 30 minutes.
The right common carotid artery was exposed and clamped at the both proximal and distal ends. The treated vein segment was washed with PBS and then anastomosed in a reverse end-to-side fashion into the carotid artery, using continuous 8-0 polypropylene sutures. The common carotid artery was ligated and dissected between the two anastomoses, and the wound was closed with 3-0 nylon suture.
Vein graft segments were harvested on the 28th surgical day. Graft segments were fixed in 10% buffered formalin with gentle intraluminal pressure to maintain the physiological graft configuration. The middle portion of the paraffin samples were sectioned (5 μm) and stained with hematoxylin/eosin for light microscopic examination (FIGS. 8A-C). Three sections of each graft, taken at 0.5 mm intervals, were analyzed by planimetry by a observer blinded to the treatment group. The cross-sectional areas of the lumen, intima and media was digitized with the use of the Image Analyst program (Automatrix). The ratio of intima to media (I/M) area was calculated.

vein graft segments = assay: Ex vivo NOx production from vein graft harvested 3 days after surgery; format: in vivo, New Zealand white rabbits; conditions: vein grafts harvested after 3 days, absence of calcium ionophore
Method: Vein grafts were harvested 3 days after surgery, as described in Example 7. Vein graft segments were incubated in 1 me of Hanks' buffered saline solution (HBSS, Irvine Scientific) containing Ca^2+ (1.0 mM) and L-arginine (100 μM, Sigma) at 37° C. for 2 hours. NOx (nitrate and nitrite) production was measured either in the absence (basal) or presence (stimulated) of calcium ionophore (A23187, 10.0 μM, Sigma). Samples of the medium (80 μL) were collected, and NOx measurement was performed using the Griess reaction facilitated by a commercial calorimetric assay (Cayman Chemical).

[4] = tested on: coronary vessels of transplanted PVG rat donor hearts; assay: Heart transplant study (graft coronary artery disease, GCAD); format: in vivo; conditions: for % affected vessels / % luminal narrowing / I/M ratio: intracoronary 50 uM, 30 minutes
Method: In this study, PVG rat donor hearts (n=48) were transplanted heterotopically into the abdomen of ACI recipients. Donor hearts received either intracoronary PBS or intracoronary 50 uM (L)-arginine polymer (L-R5 or L-R9) for 30 minutes. (D-arginine polymers were not included in this study.) Each of these groups was further divided into 60 and 90 day study animals (n=6 each). Percent luminal narrowing, intima to media ratio (I/M), and percent affected vessels were determined as described in Example 11, below. Transfection efficiency was determined by infusing biotinylated R5 and R9, as in the preceding studies, and calculating the percentage of biotin positive nuclei divided by total number of nuclei.
PVG rat donor hearts (n=48) were transplanted heterotopically into the abdomen of ACI recipients. Donor hearts received either intracoronary PBS or intracoronary 50 uM (L)-arginine polymer (L-R5 or L-R9) for 30 minutes. Each group was further divided into 60 and 90 day study animals (n=6 each). Tissue cross sections (5μ) were stained with EVG (Elastica-van Gieson) preparation, and vessels were scored using computerized morphometry for analysis of % luminal narrowing, intima to media ratio (I/M), and % affected vessels. Transfection efficiency was determined by infusing biotinylated R5 and R9, as in preceding examples, and calculating the percentage of biotin positive nuclei divided by total number of nuclei. Results are described in Section IV C, above.

cell membrane = conditions: previously demonstrated; cited from earlier work
rat VSMC = assay: Stimulation of cells with interferon-γ and LPS: NO2 accumulation and dependence on extracellular L-arginine; format: cell-based; conditions: IFN-γ dose
Method: as §1, §2
Cells were plated at a density of 5×10^3 per well into 96-well plates. […] After 24 hours of incubation, the cells were then treated with a mixture of IFN-γ (100 U/ml) and LPS (100 μg/ml) in the medium containing the same dose of L-arginine for another 24 hours, and nitrite (NO2) accumulation in the culture medium was quantified.

With `N=C(N)NCCC[C@H](N)C(=O)O` [L-arginine, reference compound] as the molecule, how does the “elevation of NO production” value (cytokine-stimulated VSMC [1]; R7 10 μM pretreatment, free L-arginine up to 1 mM) read?
The value was “not observed”.

What about the “NO biosynthesis after 5 minutes exposure” value (cytokine-stimulated VSMC [2]) of the same molecule?
The value was “did not significantly increase NO biosynthesis”.

Which results are given for hepta-D-arginine [D-r7]?
VSMC proliferation (Rat aortic VSMC): significantly inhibited; NO production (cytokine-stimulated VSMC [1]; 100 μM, 30 minutes): did not increase the NO production; translocation across cytoplasmic and nuclear membranes [3]: very efficient at translocating across both cytoplasmic and nuclear membranes; myointima formation (vein grafts): substantially less myointima formation; intima/media ratio (I/M) (vein grafts; 10.0 μM): 0.8±0.2; intimal area (vein grafts; 10.0 μM, 30 minutes immersion): 1.1±0.4 mm^2; reduction of intimal area (vein grafts; 10.0 μM, vs control): about 35%; Basal NOx production (vein graft segments): 48±8 nM/mg tissue/hr

Which results are given for penta-L-arginine [R5]?
GCAD compared to PBS controls ([4]; 60 and 90 days): essentially no difference in GCAD; % affected vessels ([4]; 60 days): 18.9 ± 7%; % luminal narrowing ([4]; 60 days): 12.6 ± 6.7%; I/M ratio ([4]; 60 days): .13 ± .07; % affected vessels ([4]; 90 days): 18.5 ± 11.9%; % luminal narrowing ([4]; 90 days): 14.2 ± 12%; I/M ratio ([4]; 90 days): .16 ± .14; transfection of coronary vessels ([4]; biotinylated oligomer infused): minimal transfection of coronary vessels; NO production (cytokine-stimulated VSMC [1]; pretreatment 30 minutes, then IFN-γ and LPS, 100 μM extracellular L-arginine): no significant enhancement of NO production; translocation across the cell membrane (cell membrane): not to translocate across the cell membrane; myointima formation (vein grafts): not effective in inhibiting myointima formation

B1: IFN-γ: Recombinant rat recombinant interferon-γ (protein, UniProt P01581 23-156, looked up)
Interferon gamma: QGTLIESLESLKNYFNSSSMDAMEGKSLLLDIWRNWQKDGNTKILESQIISFYLRLFEVLKDNQAISNNISVIESHLITNFFSNSKAKKDAFMSIAKFEVNNPQIQHKAVNELIRVIHQLSPESSLRKRKRSRC
For B1, which “effect on NO biosynthesis” value (rat VSMC) is on record?
The value was “dose-dependent”.
